One assay deals with T1, TIP48/TIP49 complex (Homo sapiens, UniProt Q9Y230+Q9Y265).
T1 construct: made in house; host or cells: E. coli
The experiment in a line: ATPase assay of TIP48/TIP49 complex (ADP-Glo). The note with it: concentration at which the ATPase activity was inhibited by 50%. In kind it is biochemical. The essentials: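 Compound was tested over 10 four-fold concentrations, 200 μM down to 0.0007 μM at 2% DMSO, against E. coli-derived human rTIP48/rTIP49 for 1.5 h at room temperature, pH 7.5 with ATP. ATP hydrolysis was read as ADP-Glo luminescence, normalised to complex-only and no-complex wells, then fitted to dose-response curves.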

Assay [1] concerns human lymphoma cell line RAMOS cells. The experiment in a line: Cell growth inhibition test using RAMOS cell, MTT assay. Format: cell-based. The note with it: 50% growth inhibition concentration. On the procedure: A cell growth inhibition test was carried out by treating human lymphoma cell line RAMOS cells with a test compound for a given period and then counting the number of viable cells by MTT assay or CellTiter-Glo Luminescent Cell Viability Assay (manufactured by Promega Corp.; hereinafter, referred to as ATP assay).
RAMOS cells were suspended in a medium (RPMI1640 medium containing 10% fetal bovine serum). The cell suspension was inoculated at 5000 cells/150 μL/well to a 96-well multiwell plate. The test compound was dissolved in DMSO, and this solution was diluted with medium to prepare a sample solution (DMSO concentration: 1% or lower). Subsequently, test compound-free medium or the sample solution was added thereto at 50 μL/well. The MTT assay was carried out at the day of addition of the sample solution or the DMSO dilution to the cells and after culture at 37° C. for 3 days under 5% CO2 of the cells supplemented with the sample solution or the medium. The MTT assay was carried out as follows.
A 5 mg/mL solution of MTT (3-(4,5-dimethylthiazol-2-yl)-2,5-diphenyltetrazolium bromide, Sigma-Aldrich Corp., M-2128) was prepared using a phosphate buffered solution (Dulbecco's phosphate-buffered saline). This MTT solution was added at 20 μL/well to the plate. Then, the plate was incubated at 37° C. for 4 hours under 5% CO2. The plate was centrifuged at 1200 rpm for 5 minutes, and then, the culture supernatant was removed by suction using a dispenser. DMSO was added thereto at 150 μL/well to dissolve formed formazan. […] from each well was rendered uniform by the stirring of the plate using a plate mixer. The absorbance of each well was measured using a plate reader under conditions involving OD of 540 nm and reference of 660 nm.
The number of viable cells and absorbance (hereinafter, referred to as an OD value) have been confirmed to correlate with each other. Therefore, the rate of cell growth was calculated according to the following expression: Rate of cell growth (T/C %) of a test compound-supplemented well=100×[(B−C)/(A−C)] wherein A represents the OD value (final culture date) of a test compound-free well; B represents the OD value (final culture date) of a test compound-containing well; and C represents the OD value (day of cell inoculation) of a well at the start of contact of the cells with the test compound.
T/C % at each concentration of the test compound was determined. The concentration at which the test compound offered 50% growth rate was calculated as a 50% growth inhibition concentration (GI50) value from the growth rates at two points interpolating 50% and the concentrations, and is shown in Table 56.
Background: Tetrazolium dyes change colour on reduction, which living cells bring about.

SMILES strings stand for the structures.

T1 sequence (Q9Y230 whole entry): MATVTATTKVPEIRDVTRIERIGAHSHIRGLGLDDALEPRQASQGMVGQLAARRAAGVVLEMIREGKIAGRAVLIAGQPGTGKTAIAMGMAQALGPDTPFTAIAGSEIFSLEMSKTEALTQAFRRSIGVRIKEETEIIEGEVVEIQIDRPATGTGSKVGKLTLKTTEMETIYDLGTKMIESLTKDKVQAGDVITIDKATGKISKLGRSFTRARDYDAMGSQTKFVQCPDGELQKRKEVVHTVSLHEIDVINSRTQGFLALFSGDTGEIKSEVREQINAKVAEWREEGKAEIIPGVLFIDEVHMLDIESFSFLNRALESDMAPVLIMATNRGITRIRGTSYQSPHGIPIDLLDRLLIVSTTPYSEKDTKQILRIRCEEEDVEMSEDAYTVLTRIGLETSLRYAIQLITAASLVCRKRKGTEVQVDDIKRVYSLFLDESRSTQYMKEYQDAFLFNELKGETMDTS
T1 sequence (Q9Y265 whole entry): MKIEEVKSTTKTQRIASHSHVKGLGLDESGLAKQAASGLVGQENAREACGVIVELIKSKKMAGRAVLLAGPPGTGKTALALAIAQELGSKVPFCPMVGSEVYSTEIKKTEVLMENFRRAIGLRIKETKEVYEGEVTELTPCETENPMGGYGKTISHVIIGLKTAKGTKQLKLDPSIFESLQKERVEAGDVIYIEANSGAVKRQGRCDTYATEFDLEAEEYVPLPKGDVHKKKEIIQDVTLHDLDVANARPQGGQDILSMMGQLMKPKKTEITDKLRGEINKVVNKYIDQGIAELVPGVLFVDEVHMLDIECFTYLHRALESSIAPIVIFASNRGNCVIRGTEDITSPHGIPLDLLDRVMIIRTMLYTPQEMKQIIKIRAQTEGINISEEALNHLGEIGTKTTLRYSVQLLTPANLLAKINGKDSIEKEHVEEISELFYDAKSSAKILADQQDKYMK

Broadly, the IC50 is the concentration needed to halve the response being measured. A word on the GI50: it is the concentration that inhibits growth by half. Low readings indicate more potent growth inhibition, high ones less potent growth inhibition. As to `C=Cn1c(C)c(NC(=O)CC(C)(C)CC(=O)Nc2cc(Cl)c(F)cc2OC)c(=O)n1-c1ccccc1` [Example 143, N-(5-Chloro-4-fluoro-2-methoxyphenyl)-3,3-dimethyl-N′-(3-methyl-5-oxo-1-phenyl-2-vinylpyrazol-4-yl)pentanediamide], on TIP48/TIP49 complex, the midpoint of inhibition, the IC50, lay at 260 nM. The compound also showed a GI50 in assay [1] of 1200 nM.

On TIP48/TIP49 complex, `COCc1c(NC(=O)CC(C)(C)CNC(=O)c2cc(Cl)cc3c2OC(C)(C)C3)c(=O)n(-c2ccccc2)n1C` [Example 121, 5-Chloro-N-(4-{[5-(methoxymethyl)-1-methyl-3-oxo-2-phenyl-2,3-dihydro-1H-pyrazol-4-yl]amino}-2,2-dimethyl-4-oxobutyl)-2,2-dimethyl-3H-benzofuran-7-carboxamide] yielded an IC50 of 61 nM. In addition, growth in assay [1] was halved (GI50) at 140 nM.

Turning to `COc1ccc(Cl)cc1NC(=O)CC(C)(C)CC(=O)Nc1c(C(C)C)n(C)n(-c2ccccc2)c1=O` [Example 128, N-(5-Chloro-2-methoxyphenyl)-N′-(5-isopropyl-1-methyl-3-oxo-2-phenyl-2,3-dihydro-1H-pyrazol-4-yl)-3,3-dimethylpentanediamide], the IC50 at TIP48/TIP49 complex is 190 nM. Besides, in assay [1], the concentration for 50% growth inhibition (GI50) was 590 nM.

`Cc1c(NC(=O)CC(C)(C)CNC(=O)c2cc(Cl)cc3c2OC(C)CN3C)c(=O)n(-c2ccccc2)n1C` (stereo not shown) [Example 110, 6-Chloro-N-{4-[(1,5-dimethyl-3-oxo-2-phenyl-2,3-dihydro-1H-pyrazol-4-yl)amino]-2,2-dimethyl-4-oxobutyl}-2,4-dimethyl-2,3-dihydro-1,4-benzoxazine-8-carboxamide]: the IC50 against TIP48/TIP49 complex came to 33 nM. For the same compound, in assay [1], halving of growth (GI50) required 120 nM.

`CCc1nc2c(C(=O)NCC(C)(C)CC(=O)Nc3c(C)n(C)n(-c4ccccc4)c3=O)cc(Cl)cc2o1` [Example 111, 6-Chloro-N-{4-[(1,5-dimethyl-3-oxo-2-phenyl-2,3-dihydro-1H-pyrazol-4-yl)amino]-2,2-dimethyl-4-oxobutyl}-2-ethyl-1,3-benzoxazole-4-carboxamide] came in with an IC50 against TIP48/TIP49 complex of 44 nM. This compound registered a GI50 in assay [1] of 90 nM.

The compound `CCOc1ccc(Cl)cc1C(=O)NCC(C)(C)CC(=O)Nc1c(C)n(C)n(-c2ccccn2)c1=O` [Example 149, 5-Chloro-N-(4-{[1,5-dimethyl-3-oxo-2-(2-pyridyl)pyrazol-4-yl]amino}-2,2-dimethyl-4-oxobutyl)-2-ethoxybenzamide] yielded an IC50 at TIP48/TIP49 complex of 100 nM. In assay [1], this compound had a GI50 of 190 nM.

On to `COc1ncc(Cl)cc1C(=O)NCC(C)(C)CC(=O)Nc1c(CN(C)C)n(C)n(-c2ccccc2)c1=O` [Example 7, 5-Chloro-N-[4-({5-[(dimethylamino)methyl]-1-methyl-3-oxo-2-phenyl-2,3-dihydro-1H-pyrazol-4-yl}amino)-2,2-dimethyl-4-oxobutyl]-2-methoxypyridine-3-carboxamide], for which the IC50 against TIP48/TIP49 complex worked out at 110 nM. In assay [1], this compound gave a GI50 of 470 nM.

Compound `CCOc1ccc(Cl)cc1C(=O)NCC(C)(C)CC(=O)Nc1c(CCNC)n(C)n(-c2ccccc2)c1=O` [Example 33, 5-Chloro-N-[2,2-dimethyl-4-({1-methyl-5-[2-(methylamino)ethyl]-3-oxo-2-phenyl-2,3-dihydro-1H-pyrazol-4-yl}amino)-4-oxobutyl]-2-ethoxybenzamide] gave an IC50 at TIP48/TIP49 complex of 63 nM. Further, the GI50 in assay [1] amounted to 130 nM.

As to `Cc1cccc(-n2c(=O)c(NC(=O)CC(C)(C)CC(=O)Nc3cc(Cl)ccc3OC(F)(F)F)c(C)n2C)n1` [Example 154, N-[5-Chloro-2-(trifluoromethoxy)phenyl]-N′-[1,5-dimethyl-2-(6-methyl-2-pyridyl)-3-oxo-2,3-dihydro-1H-pyrazol-4-yl]-3,3-dimethylpentanediamide], it took 82 nM to reach half-maximal inhibition at TIP48/TIP49 complex (IC50). Also, the GI50 in assay [1] was determined as 110 nM.

Turning to `CCOc1ncc(Cl)cc1C(=O)NCC(C)(C)CC(=O)Nc1c(COC)n(C)n(-c2ccccc2)c1=O` [Example 117, 5-Chloro-2-ethoxy-N-(4-{[5-(methoxymethyl)-1-methyl-3-oxo-2-phenyl-2,3-dihydro-1H-pyrazol-4-yl]amino}-2,2-dimethyl-4-oxobutyl)pyridine-3-carboxamide], the IC50 on TIP48/TIP49 complex worked out at 41 nM. Also, growth in assay [1] was halved (GI50) at 110 nM.

Consider `COCc1c(NC(=O)CC(C)(C)CNC(=O)c2cc(Cl)cc3cc(C)oc23)c(=O)n(-c2ccccc2)n1C` [Example 120, 5-Chloro-N-(4-{[5-(methoxymethyl)-1-methyl-3-oxo-2-phenyl-2,3-dihydro-1H-pyrazol-4-yl]amino}-2,2-dimethyl-4-oxobutyl)-2-methylbenzofuran-7-carboxamide], for which the IC50 on TIP48/TIP49 complex is 24 nM. The compound further came in with a GI50 in assay [1] of 51 nM.

In turn, `CCOc1ccc(Cl)cc1C(=O)NCC(C)(C)CC(=O)Nc1c(COc2cccnc2)n(C)n(-c2ccccc2)c1=O` [Example 135, 5-Chloro-N-(2,2-dimethyl-4-{[1-methyl-3-oxo-2-phenyl-5-(3-pyridyloxymethyl)pyrazol-4-yl]amino}-4-oxobutyl)-2-ethoxybenzamide] gave an IC50 against TIP48/TIP49 complex of 100 nM. In assay [1], this compound had a GI50 of 120 nM.

For `Cc1c(NC(=O)CC(C)(C)CNC(=O)c2cc(Cl)cc3c2OC(C)C3)c(=O)n(-c2ccccc2)n1C` (stereo not shown) [Example 105, 5-Chloro-N-{4-[(1,5-dimethyl-3-oxo-2-phenyl-2,3-dihydro-1H-pyrazol-4-yl)amino]-2,2-dimethyl-4-oxobutyl}-2-methyl-2,3-dihydrobenzofuran-7-carboxamide], the IC50 against TIP48/TIP49 complex turned out to be 26 nM. Moreover, the GI50 in assay [1] came out at 74 nM.

Compound `COc1ccc(Cl)cc1NC(=O)CC1(CC(=O)Nc2c(C)n(C)n(-c3ccccc3)c2=O)CC1` [Example 101, N-(5-Chloro-2-methoxyphenyl)-2-(1-{2-[(1,5-dimethyl-3-oxo-2-phenyl-2,3-dihydro-1H-pyrazol-4-yl)amino]-2-oxoethyl}cyclopropyl)acetamide] had an IC50 at TIP48/TIP49 complex of 450 nM. The compound also showed a GI50 in assay [1] of 3200 nM.

Take `Cc1c(NC(=O)CC(C)(C)CNC(=O)c2cc(Cl)ccc2OC2COC2)c(=O)n(-c2ccccc2)n1C` [Example 108, 5-Chloro-N-{4-[(1,5-dimethyl-3-oxo-2-phenyl-2,3-dihydro-1H-pyrazol-4-yl)amino]-2,2-dimethyl-4-oxobutyl}-2-(oxetan-3-yloxy)benzamide]: the IC50 against TIP48/TIP49 complex stood at 190 nM. The compound also had a GI50 in assay [1] of 740 nM.

At TIP48/TIP49 complex, `CCOc1ccc(Cl)cc1NC(=O)CC(C)(O)CC(=O)Nc1c(C)n(C)n(-c2ccccc2)c1=O` (stereo not shown) [Example 103, N-(5-Chloro-2-ethoxyphenyl)-N′-(1,5-dimethyl-3-oxo-2-phenyl-2,3-dihydro-1H-pyrazol-4-yl)-3-hydroxy-3-methylpentanediamide] returned an IC50 of 170 nM. In assay [1], this compound came in with a GI50 of 1400 nM.

`COc1ccc(Cl)cc1NC(=O)CC(C)(C)CC(=O)Nc1c(C)n(C)n(C2CCCCC2)c1=O` [Example 160, N-(5-Chloro-2-methoxyphenyl)-N′-(1-cyclohexyl-2,3-dimethyl-5-oxopyrazol-4-yl)-3,3-dimethylpentanediamide] gave an IC50 against TIP48/TIP49 complex of 200 nM. In addition, the GI50 in assay [1] was 990 nM.

At TIP48/TIP49 complex, `CCC(C)(CC(=O)Nc1cc(Cl)ccc1OC)CC(=O)Nc1c(C)n(C)n(-c2ccccc2)c1=O` (stereo not shown) [Example 99, N-(5-Chloro-2-methoxyphenyl)-N′-(1,5-dimethyl-3-oxo-2-phenyl-2,3-dihydro-1H-pyrazol-4-yl)-3-ethyl-3-methylpentanediamide] yielded an IC50 of 260 nM. In assay [1], this compound returned a GI50 of 400 nM.

Turning to `COc1ccc(Cl)cc1C(=O)NCC(C)(C)CC(=O)Nc1c(CCN(C)C)n(C)n(-c2ccccc2)c1=O` [Example 22, 5-Chloro-N-[4-({5-[2-(dimethylamino)ethyl]-1-methyl-3-oxo-2-phenyl-2,3-dihydro-1H-pyrazol-4-yl}amino)-2,2-dimethyl-4-oxobutyl]-2-methoxybenzamide], on TIP48/TIP49 complex, inhibition was half-maximal at 110 nM (IC50). This compound also displayed a GI50 in assay [1] of 460 nM.

The compound `CCOc1ccc(Cl)cc1C(=O)NCC(C)(C)CC(=O)Nc1c(CCN(C)C(C)C)n(C)n(-c2ccccc2)c1=O` [Example 19, 5-Chloro-2-ethoxy-N-{4-[(5-{2-[isopropyl(methyl)amino]ethyl}-1-methyl-3-oxo-2-phenyl-2,3-dihydro-1H-pyrazol-4-yl)amino]-2,2-dimethyl-4-oxobutyl}benzamide] came in with an IC50 against TIP48/TIP49 complex of 63 nM. The compound further gave a GI50 in assay [1] of 150 nM.

The values are drawn from patent publication US20170107207A1, “AMINOPYRAZOLONE DERIVATIVE” (DAIICHI SANKYO COMPANY, LIMITED, priority 2014, published 2017).
